Assay results reported in paper PMC7016953 (Cells, 2020).

Legend:
[1] = test system: TRPC4, TRPC5, TRPA1, TRPM2, TRPM3, TRPM8, TRPV1, TRPV2, TRPV4, or TRPV4; test: Selectivity profiling, inhibition of activator responses in the TRP channel panel; assay type: cell-based; settings: 100 µM, subsequent stimulation with channel-specific activators
Procedure: Human embryonic kidney 293 (HEK293) cells were stably transfected with expression plasmids that encode hTRPC3-YFP, hTRPC6-YFP, hTRPC7-YFP, mTRPC4ß-YFP, rTRPV1-CFP, rTRPV2-YFP, rTRPV3-YFP, mTRPV4-YFP, or hTRPM2 as previously described. Cell lines were cultured in Earle’s minimum essential medium (MEM; Sigma, Munich, Germany), supplemented with 10% fetal calf serum (Gibco Thermo Fisher Scientific, Darmstadt, Germany), 2 mM L-glutamine, and required concentrations of geneticin in a range of 0.4–1 mg/mL. A HEK293mTRPC5-YFP cell line was maintained and induced as described before. […] For electrophysiological and single cell [Ca^2+]i imaging experiments, PC12 cells were plated onto 25 mm poly-L-lysine-coated glass coverslips and measured 24–48 h after seeding. […]
The primary compound screen and the generation of concentration response curves in HEK293 cells or in PC12 cells were performed by using a custom-made fluorescence plate imager built into a robotic liquid handling station equipped with a 96-tip multichannel head (Freedom Evo 150, Tecan, Männedorf, Switzerland) as described previously. […] Plates were mounted on the imager, and fluorescence signals were recorded with a cooled Zyla 5.5 camera (Andor, Belfast, UK) through a 515 nm long pass filter. […] When inhibitory potencies were evaluated, a second pipetting step with the respective reference agonist was performed. […]

[2] = test system: T1, TRPC6; test: Microfluorometric single-cell [Ca2+]i analysis, fura-2-loaded HEK cells stably expressing TRPC6; assay type: cell-based, human; settings: 50 µM, standard bath 1 mM Ca2+
T1 construct: expressed in transfected cells
Procedure: The microfluorometric single-cell [Ca^2+]i analysis was performed on an inverted epifluorescence microscope (Carl Zeiss, Jena, Germany) and calibrated as described. Cells were grown on 25 mm coverslips and loaded with 4 µM fura-2/AM (AAT Bioquest, Sunnyvale, CA, U.S.A.) in HBS containing 0.2% BSA for 30 min at 37 °C. […] Experiments were performed either in standard bath solution, containing 1 mM Ca^2+ (black lines and bars), or in a nominally Ca^2+-free HBS buffer, supplemented with 200 µM EGTA (grey lines and bars). Time courses of averaged responses (left), and statistical analysis of 6–11 independent imaging experiments with means and S.D. (right) are shown. Significant differences (p < 0.05, Student´s t-test with paired data: #, with unpaired data: *) are marked for the indicated comparisons; n.s.: difference is statistically not significant.

C[C@@H]1CC[C@H]2[C@@H](C)C(=O)O[C@@H]3O[C@@]4(C)CC[C@@H]1[C@]32OO4 [artemisinin]
inhibition of the investigated channels compared to the solvent control [1]: did not observe a significant inhibition | [Ca2+]i response in TRPC6-expressing cells [2]: remained unaffected
